Measured values taken from patent publication US20220053762A1, “HERBICIDAL COMPOSITIONS” (Bayer Aktiengesellschaft, priority 2018, published 2022).

Tested on: harmful plant species
Assay: Specific trial examples: binary compositions applied by the post-emergence method, synergistic effect according to Colby (Tables 3.1-3.2)
Assay type: in vivo
Experimental: When the observed efficacies already exceed the formal sum total of the values of the tests with individual applications, they also exceed the expected value according to Colby, which is calculated using the formula below and is likewise regarded as an indication of synergism (cf. S. R. Colby; in Weeds 15 (1967) p. 20 to 22):
Seeds or rhizome pieces of mono- and dicotyledonous weeds are placed in sandy loam in pots, covered with soil and grown in a greenhouse under good growth conditions (temperature, air humidity, water supply). Three weeks after sowing, the test plants are treated at the three-leaf stage with the compositions according to the invention. The compositions according to the invention formulated as spray powders or as emulsion concentrates are sprayed onto the green plant parts in various dosages with an application rate of 300 to 800 l/ha of water (equivalent).
The sum total of the effects of the individual applications is reported under E^A; Expected values according to Colby are each reported under E^C.
The rating period is reported in days after application (DAT).

C=C[C@]1(C(=O)N[C@H]2CO[C@@H](C(=O)NS(=O)(=O)C(F)(F)F)C2)CC(c2cc(F)cc(F)c2)=NO1 (relative stereo) [Compound A1, (5S)-3-(3,5-difluorophenyl)-N-[rel-(3R,5R)-5-(trifluoromethylsulfonylcarbamoyl)tetrahydrofuran-3-yl]-5-vinyl-4H-isoxazole-5-carboxamide]
Herbicidal action 28 DAT against Lolium rigidum (resistant biotype) (1.67 g a.i./ha): 0% | Herbicidal action 28 DAT against Lolium rigidum (sensitive biotype) (1.67 g a.i./ha): 0% | Herbicidal action 28 DAT against Alopecurus myosuroides (sensitive biotype) (5 g a.i./ha): 0% | Herbicidal action 28 DAT against Avena fatua (5 g a.i./ha): 50% | Herbicidal action 28 DAT against Bromus sterilis (5 g a.i./ha): 0% | Herbicidal action 28 DAT against Centaurea cyanus (5 g a.i./ha): 20% | Herbicidal action 28 DAT against Euphorbia heterophylla (5 g a.i./ha): 0% | Herbicidal action 28 DAT against Galium aparine (5 g a.i./ha): 0% | Herbicidal action 28 DAT against Hordeum murinum (5 g a.i./ha): 0% | Herbicidal action 28 DAT against Ipomoea purpurea (5 g a.i./ha): 0% | Herbicidal action 28 DAT against Lamium purpureum (5 g a.i./ha): 20% | Herbicidal action 28 DAT against Lolium rigidum (resistant biotype) (5 g a.i./ha): 0% | Herbicidal action 28 DAT against Lolium rigidum (sensitive biotype) (5 g a.i./ha): 0% | Herbicidal action 28 DAT against Phalaris minor (5 g a.i./ha): 0% | Herbicidal action 28 DAT against Polygonum convolvulus (5 g a.i./ha): 0% | Herbicidal action 28 DAT against Polygonum convulvulus (5 g a.i./ha): 50% | Herbicidal action 28 DAT against Raphanus raphanistrum (5 g a.i./ha): 80% | Herbicidal action 28 DAT against Stellaria media (5 g a.i./ha): 0% | Herbicidal action 28 DAT against Veronica hederifolia (5 g a.i./ha): 0% | Herbicidal action 28 DAT against Viola tricolor (5 g a.i./ha): 0% | Herbicidal action 28 DAT against Alopecurus myosuroides (resistant biotype) (15 g a.i./ha): 60% | Herbicidal action 28 DAT against Alopecurus myosuroides (sensitive biotype) (15 g a.i./ha): 60% | Herbicidal action 28 DAT against Centaurea cyanus (15 g a.i./ha): 30% | Herbicidal action 28 DAT against Euphorbia heterophylla (15 g a.i./ha): 10% | Herbicidal action 28 DAT against Galium aparine (15 g a.i./ha): 30% | Herbicidal action 28 DAT against Ipomoea purpurea (15 g a.i./ha): 0% | Herbicidal action 28 DAT against Lamium purpureum (15 g a.i./ha): 50% | Herbicidal action 28 DAT against Lolium rigidum (resistant biotype) (15 g a.i./ha): 0% | Herbicidal action 28 DAT against Lolium rigidum (sensitive biotype) (15 g a.i./ha): 0% | Herbicidal action 28 DAT against Phalaris minor (15 g a.i./ha): 60% | Herbicidal action 28 DAT against Polygonum convolvulus (15 g a.i./ha): 70% | Herbicidal action 28 DAT against Polygonum convulvulus (15 g a.i./ha): 93% | Herbicidal action 28 DAT against Viola tricolor (15 g a.i./ha): 20% | Herbicidal action against Echinochloa crus-galli (28 DAT, g a.i./ha: r22 270, r23 90, r24 30, r25 5, r26 1.67): 15% | Herbicidal action against Eleusine indica (28 DAT, g a.i./ha: r62 270, r63 30, r64 15, r65 5): 40% | Herbicidal action against Polygonum convulvulus (28 DAT, g a.i./ha: r137 270, r138 90, r139 30, r140 5): 50% | Herbicidal action against Alopecurus myosuroides (resistant biotype) (28 DAT, g a.i./ha: r165 15, r166 90, r167 30): 60% | Herbicidal action against Lolium rigidum (resistant bio type) (28 DAT, g a.i./ha: r220 15, r221 5, r222 270, r223 90): 0% | Herbicidal action against Veronica hederifolia (28 DAT, g a.i./ha: r294 5, r295 90): 0% | Herbicidal action 28 DAT against Euphorbia heterophylla (45 g a.i./ha): 35% | Herbicidal action 28 DAT against Galium aparine (45 g a.i./ha): 50% | Herbicidal action 28 DAT against Ipomoea purpurea (45 g a.i./ha): 10% | Herbicidal action 28 DAT [%] against Digitaria sanguinalis (post-emergence, single active compound (Glyphosate series), g a.i./ha: r765 50, r767 15): 30% | Herbicidal action 28 DAT [%] against Setaria viridis (post-emergence, single active compound (Glyphosate series), g a.i./ha: r786 450, r788 1.67): 10% | Herbicidal action 28 DAT [%] against Abutilon theophrasti (post-emergence, single active compound (Glyphosate series), g a.i./ha: r796 450, r798 5): 0% | Herbicidal action 28 DAT [%] against Echinochloa crus-galli (post-emergence, single active compound, g a.i./ha: r19 150, r20 50, r21 5): 15% | Herbicidal action 28 DAT [%] against Bromus sterilis (post-emergence, single active compound, g a.i./ha: r172 5, r173 1.67, r174 450): 0% | Herbicidal action 28 DAT [%] against Galium aparine (post-emergence, single active compound, g a.i./ha: r183 5, r184 50): 0% | Herbicidal action 28 DAT [%] against Lamium purpureum (post-emergence, single active compound, g a.i./ha: r204 45, r205 50): 70% | Herbicidal action 28 DAT [%] against Lolium rigidum (sensitive biotype) (post-emergence, single active compound, g a.i./ha: r214 15, r215 150, r216 50): 0% | Herbicidal action 28 DAT [%] against Lolium rigidum (resistant biotype) (post-emergence, single active compound, g a.i./ha: r224 15, r225 5, r226 150, r227 50): 0% | Herbicidal action 28 DAT [%] against Papaverrhoeas (post-emergence, single active compound, g a.i./ha: r235 5, r236 450, r237 50): 40% | Herbicidal action 28 DAT [%] against Raphanus raphanistrum (post-emergence, single active compound, g a.i./ha: r282 5, r283 150, r284 50): 80% | Herbicidal action 28 DAT [%] against Veronica hederifolia (post-emergence, single active compound, g a.i./ha: r292 5, r293 150): 0%

C[C@]1(C(=O)N[C@H]2CO[C@@H](C(=O)NS(C)(=O)=O)C2)CC(c2cc(F)cc(F)c2)=NO1 (relative stereo) [Compound A2, (5R)-3-(3,5-difluorophenyl)-5-methyl-N-[rel-(3R,5R)-5-(methylsulfonylcarbamoyl)tetrahydrofuran-3-yl]-4H-isoxazole-5-carboxamide]
Herbicidal action 28 DAT against Brachiaria platyphylla (1.7 g a.i./ha): 0% | Herbicidal action 28 DAT against Digitaria sanguinalis (1.7 g a.i./ha): 0% | Herbicidal action 28 DAT against Echinochloa crus-galli (1.7 g a.i./ha): 10% | Herbicidal action 28 DAT against Eleusine indica (1.7 g a.i./ha): 30% | Herbicidal action 28 DAT against Sorghum halepense (1.7 g a.i./ha): 0% | Herbicidal action 28 DAT against Amaranthus palmeri (res.) (5 g a.i./ha): 15% | Herbicidal action 28 DAT against Digitaria sanguinalis (5 g a.i./ha): 0% | Herbicidal action 28 DAT against Echinochloa crus-galli (5 g a.i./ha): 20% | Herbicidal action 28 DAT against Eleusine indica (5 g a.i./ha): 35% | Herbicidal action 28 DAT against Kochia scoparia (5 g a.i./ha): 20% | Herbicidal action 28 DAT against Pharbitis purpurea (5 g a.i./ha): 75% | Herbicidal action 28 DAT against Polygonum convolvulus (5 g a.i./ha): 80% | Herbicidal action 28 DAT against Sorghum halepense (5 g a.i./ha): 0% | Herbicidal action 28 DAT against Amaranthus palmeri (res.) (15 g a.i./ha): 65% | Herbicidal action 28 DAT against Eleusine indica (15 g a.i./ha): 45% | Herbicidal action 28 DAT against Kochia scoparia (15 g a.i./ha): 20% | Herbicidal action 28 DAT against Sorghum halepense (15 g a.i./ha): 15% | Herbicidal action against Abutilon theophrasti ((Z32) 28 DAT, g a.i./ha: r315 270, r316 90, r317 30, r318 15): 20% | Herbicidal action against Bidens pilosa ((Z32) 28 DAT, g a.i./ha: r337 270, r338 90, r339 30, r340 15): 10% | Herbicidal action against Digitaria sanguinalis ((Z32) 28 DAT, g a.i./ha: r361 270, r362 90, r363 30, r364 15): 10% | Herbicidal action against Echinochloa crus-galli ((Z32) 28 DAT, g a.i./ha: r372 270, r373 90, r374 30, r375 5): 20% | Herbicidal action against Kochia scoparia ((Z32) 28 DAT, g a.i./ha: r396 270, r397 90, r398 15, r399 5): 20% | Herbicidal action against Pharbitis purpurea ((Z32) 28 DAT, g a.i./ha: r408 270, r409 90, r410 30, r411 5): 75% | Herbicidal action against Polygonum convolvulus ((Z32) 28 DAT, g a.i./ha: r419 90, r420 30, r421 5): 80% | Herbicidal action 28 DAT [%] against Digitaria sanguinalis (post-emergence, single active compound (A2 series), g a.i./ha: r326 150, r327 50, r328 5, r329 1.7): 0% | Herbicidal action 28 DAT [%] against Eleusine indica (post-emergence, single active compound (A2 series), g a.i./ha: r337 150, r339 5): 35% | Herbicidal action 28 DAT [%] against Kochia scoparia (post-emergence, single active compound (A2 series), g a.i./ha: r347 50, r349 5): 20% | Herbicidal action 28 DAT [%] against Polygonum convulvulus (post-emergence, single active compound (A2 series), g a.i./ha: r357 50, r359 5): 80%

C=C[C@]1(C(=O)N[C@H]2CO[C@@H](C(=O)NOC)C2)CC(c2cc(C)cc(F)c2)=NO1 (relative stereo) [Compound A3, (5S)-3-(3-fluoro-5-methylphenyl)-N-[rel-(3R,5R)-5-(methoxycarbamoyl)tetrahydrofuran-3-yl]-5-vinyl-4H-isoxazole-5-carboxamide]
Herbicidal action 28 DAT against Amaranthus palmeri (res.) (15 g a.i./ha): 10% | Herbicidal action 28 DAT against Amaranthus palmeri (res.) (45 g a.i./ha): 20% | Herbicidal action 28 DAT against Kochia scoparia (45 g a.i./ha): 20% | Herbicidal action against Abutilon theophrasti (Z61 28 DAT, g a.i./ha: r459 30, r460 15): 10% | Herbicidal action against Amaranthus palmeri (res.) (Z61 28 DAT, g a.i./ha: r467 90, r468 30, r469 15, r470 5): 10% | Herbicidal action against Brachiaria platyphylla (Z61 28 DAT, g a.i./ha: r479 30, r480 1.7): 10% | Herbicidal action against Eleusine indica (Z61 28 DAT, g a.i./ha: r487 270, r488 5): 70% | Herbicidal action 28 DAT [%] against Pharbitis purpurea (post-emergence, single active compound, g a.i./ha: r396 50, r398 5): 70%
